Experimental data published in patent US7109360B1, “16-hydroxyestratrienes as selectively active estrogens” (priority 1999, dated 2006).

Tests used:
[1] = test system: estrogen receptor preparations of rat prostates; experiment: Competitive 3H-estradiol binding to estrogen receptor of rat prostate cytosol; details: for prost. ER/uterus ER: ratio RBA prostate-ER / RBA uterus-ER
[2] = target: T1, human estrogen receptor β (Homo sapiens, UniProt Q92731); experiment: Binding to human estrogen receptor β produced by Baculovirus/SF-9 expression system; details: for hERβ RBA / ERβ/ERα: Table 2; for hERβ RBA: human ERβ from Baculovirus/SF-9, estradiol = 100; for ERβ/ERα: quotient RBA ERβ / RBA ERα
T1 construct: made in house; host or cells: Baculovirus/SF-9
T1 sequence (Q92731 whole entry): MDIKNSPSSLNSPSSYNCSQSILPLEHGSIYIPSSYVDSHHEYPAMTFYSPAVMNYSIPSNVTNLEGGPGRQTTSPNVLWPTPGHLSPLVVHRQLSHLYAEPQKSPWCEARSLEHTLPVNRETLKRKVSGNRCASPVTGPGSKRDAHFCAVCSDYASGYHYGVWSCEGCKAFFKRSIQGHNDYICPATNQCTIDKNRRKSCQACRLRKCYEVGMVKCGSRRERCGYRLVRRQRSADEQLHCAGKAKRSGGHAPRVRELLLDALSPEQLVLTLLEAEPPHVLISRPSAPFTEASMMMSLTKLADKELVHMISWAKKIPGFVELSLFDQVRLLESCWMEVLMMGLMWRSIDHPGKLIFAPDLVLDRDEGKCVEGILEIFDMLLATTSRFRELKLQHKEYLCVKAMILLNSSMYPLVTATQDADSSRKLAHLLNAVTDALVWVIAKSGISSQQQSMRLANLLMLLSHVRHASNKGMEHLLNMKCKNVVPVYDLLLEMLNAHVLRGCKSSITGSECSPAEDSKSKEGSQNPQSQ

[3] = target: T2, human estrogen receptor α (Homo sapiens, UniProt P03372); experiment: Binding to human estrogen receptor α produced by Baculovirus/SF-9 expression system; details: Table 2; human ERα from Baculovirus/SF-9, estradiol = 100
T2 construct: made in house; host or cells: Baculovirus/SF-9
T2 sequence (P03372 1-595): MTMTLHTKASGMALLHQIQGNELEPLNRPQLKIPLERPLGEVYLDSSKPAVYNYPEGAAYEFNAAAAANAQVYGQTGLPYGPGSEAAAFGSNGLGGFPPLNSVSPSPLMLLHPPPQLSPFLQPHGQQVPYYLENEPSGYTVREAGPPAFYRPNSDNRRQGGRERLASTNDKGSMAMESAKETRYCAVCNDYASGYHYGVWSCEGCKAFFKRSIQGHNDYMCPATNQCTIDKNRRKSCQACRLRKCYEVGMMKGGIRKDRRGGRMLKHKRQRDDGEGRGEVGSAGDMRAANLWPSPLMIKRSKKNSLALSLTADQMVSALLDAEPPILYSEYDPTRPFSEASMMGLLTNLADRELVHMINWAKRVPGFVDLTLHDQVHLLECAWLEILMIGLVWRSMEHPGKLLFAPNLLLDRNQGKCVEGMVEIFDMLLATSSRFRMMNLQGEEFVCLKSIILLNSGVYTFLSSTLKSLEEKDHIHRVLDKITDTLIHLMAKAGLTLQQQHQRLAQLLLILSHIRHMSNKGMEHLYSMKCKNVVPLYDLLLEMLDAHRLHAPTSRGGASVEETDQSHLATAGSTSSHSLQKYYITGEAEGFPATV

[4] = target: T3, estrogen receptor preparations of rat uteri (Rattus norvegicus, UniProt P06211); experiment: Competitive 3H-estradiol binding to estrogen receptor of rat uterus cytosol
T3 construct: The preparation of rat uterus cytosol, as well as the receptor test with the ER-containing cytosol; from tissue; host or cells: rat uterus cytosol
T3 sequence (P06211 1-600): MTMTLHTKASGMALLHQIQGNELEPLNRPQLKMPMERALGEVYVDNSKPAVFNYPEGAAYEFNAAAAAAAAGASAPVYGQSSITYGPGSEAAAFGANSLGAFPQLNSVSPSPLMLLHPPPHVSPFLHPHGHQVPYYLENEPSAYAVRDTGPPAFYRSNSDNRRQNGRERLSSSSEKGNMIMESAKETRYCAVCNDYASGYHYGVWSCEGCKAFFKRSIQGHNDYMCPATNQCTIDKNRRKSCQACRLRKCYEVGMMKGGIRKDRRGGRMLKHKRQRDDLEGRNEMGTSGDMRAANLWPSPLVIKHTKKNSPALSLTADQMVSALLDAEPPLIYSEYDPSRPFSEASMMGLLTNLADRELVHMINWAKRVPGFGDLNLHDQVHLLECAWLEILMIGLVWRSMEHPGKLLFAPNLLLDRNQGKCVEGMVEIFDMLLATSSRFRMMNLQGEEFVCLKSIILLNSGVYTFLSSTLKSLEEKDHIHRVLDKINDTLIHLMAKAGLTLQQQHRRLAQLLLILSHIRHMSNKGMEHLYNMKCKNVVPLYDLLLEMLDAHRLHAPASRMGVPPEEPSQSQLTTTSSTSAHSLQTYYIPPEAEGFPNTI

[5] = test system: hERβ; details: Table 1; estradiol = 100; cited from Kuiper et al. (1996); cited from earlier work
[6] = test system: uterus of ovariectomized female rats; experiment: Bone studies: uterus stimulation (uterus weight) in ovariectomized rats; type: in vivo, rat; details: s.c. once daily for 28 days
Experimental: (§1) Three-month-old female rats are ovariectomized and treated once daily with the test compound immediately after the operation for 28 days. The administration is carried out subcutaneously in arachis oil/ethanol. The animals are sacrificed on the day after the last administration, and tibia as well as uteri are removed. The uteri are weighed, fixed and worked up for histological studies. The determination of bone density is carried out ex vivo on prepared long bones by means of pQCT (quantitative computer tomography). The measurements are made at a distance of 4–6 mm from the ball of the joint of the proximal tibia.
(§2) Estra-1,3,5(10)-triene-3,16α-diol reflects this in vivo in the greatly different amounts, which produce a 50% bone protection [3 μg/animal] or a 50% uterus stimulation [30 μg/animal], relative to the bone mass loss, which can be measured in ovariectomized, untreated female rats 28 days after the ovariectomy unlike in intact animals that are subjected to sham operations.

[7] = test system: trabecular bone density in ovariectomized female rats; experiment: Bone studies: bone density of proximal tibia (pQCT) in ovariectomized rats; type: in vivo, rat; details: s.c. once daily for 28 days, relative to bone mass loss of untreated ovariectomized vs sham-operated animals
Experimental: as §1
The ovariectomy reduces the density of the trabecular bone in the measured area by about 400 mg of Ca^2+/cm^3 to about 300 mg of Ca^2+/cm^3. By treatment with a compound of general formula I according to this invention, the degradation of the bone density is prevented or inhibited. The bone density in the proximal tibia was measured.
as §2

[8] = test system: hERβ; experiment: Relative binding affinity to hERβ, cited from Kuiper et al.; design: species or system human; details: Table 1; quotient of cited RBA hERβ / hERα
Excerpt: In this case, it is assumed that ERβ predominates in the rat prostates over ERα, and ERα predominates in rat uteri over ERβ.

[9] = Table 1, 3H-estradiol as ligand, estradiol = 100

| SMILES | Rat prost. ER (RBA) [1, 9] | Rat prost. ER (RBA) ([1]; Table 2, estradiol = 100) | hERβ RBA [2] | ERβ/ERα [2] | hERα RBA [3] | Rat uterus ER (RBA) ([4]; Table 2, estradiol = 100) | prost. ER/uterus ER ([1]; Table 2) | further results |
| --- | --- | --- | --- | --- | --- | --- | --- | --- |
| O=c1c(-c2ccc(O)cc2)coc2cc(O)cc(O)c12 [Genisteine] | 10 | 10 |  |  |  |  |  |  |
| C[C@]12CC[C@@H]3c4ccc(O)cc4CC[C@H]3[C@@H]1C[C@@H](O)C2=O [16α-hydroxyestrone] |  |  |  |  |  |  |  | binding to human estrogen receptor β relative to human estrogen receptor α [2]: three times better; RBA value on rat prostate estrogen receptor relative to RBA value on rat uterus estrogen receptor [1]: five times better |
| C#C[C@@]1(O)C[C@@H]2CC[C@@H]3[C@H](CC[C@@]4(C)[C@H]3CC[C@@]4(O)C#C)[C@@]2(C)C1 [Anordiol] |  | <0.01 | 0.2 | 0.01 | 15 | 6.6 | <0.01 |  |
| C[C@]12CC[C@@H]3c4ccc(O)cc4CC[C@H]3[C@@H]1C[C@@H](O)[C@@H]2O [Estriol] |  |  |  |  |  |  |  | hERβ RBA [5]: 21 |
| C[C@]12CC[C@@H]3c4ccc(O)cc4CC[C@H]3[C@@]13CC[C@]2(O)[C@H](O)C3 [Cyclotriol] |  | 17 | 10 | 0.3 | 36 | 50 | 0.3 |  |
| C[C@]12CC[C@@H]3c4ccc(O)cc4CC[C@H]3[C@@H]1C[C@@H](O)C2 [16α-Estradiol, estra-1,3,5(10)-triene-3,16α-diol] |  |  |  |  |  |  |  | Receptor binding ERβ (RBA)/ERα (RBA) ([2]; Table 3): 6; 50% uterus stimulation [6]: 30 μg/animal; Rat uterus ER (RBA) ([4]; Table 3): 9; Rat prost. ER (RBA) ([1]; Table 3): 50; 50% bone protection [7]: 3 μg/animal |
| O=c1oc2cc(O)ccc2c2oc3cc(O)ccc3c12 [Coumestrol] |  |  | 100 |  |  |  |  |  |
| C[C@]12CC[C@H]3[C@@H](CC=C4C[C@@H](O)CC[C@@]43C)[C@@H]1CC[C@@H]2O [5-Androstenediol] | 5 | 5 | 10 | 6 | 1.7 | 0.1 | 50 | hERβ RBA [5]: 17; ERβ/ERα [8]: 3; Rat uterus ER (RBA) [4, 9]: 0.1; prost. ER/uterus ER ([1]; Table 1): 50 |
| O=C(c1ccc(OCCN2CCCCC2)cc1)c1c(-c2ccc(O)cc2)sc2cc(O)ccc12 [Raloxifene] |  | 1.5 | 9 |  |  |  |  |  |
| C[C@]12CC[C@@H]3c4ccc(O)cc4CC[C@H]3[C@@H]1CC[C@H]2O [17α-Estradiol] | 1.3 |  |  |  |  |  |  |  |
